Experimental data published in patent US20220305012A1, “L[…] TREATING SLEEP ISSUES” (EISAI R&D MANAGEMENT CO., LTD., priority 2019, published 2022).
Where two headings read alike, the source gives them in different places.

What was measured:
Assay type in all cases: in vivo, human
[1] = Example 1: plasma concentrations of lemborexant and metabolites; details: for concentration at 1 month / concentration at 3 month / concentration at 6 month: human, plasma
Description: Month 1 Assessment: Standard safety assessments were performed on the subject. A blood sample was collected for determination of plasma concentration of lemborexant and its metabolites, and the ISI, FSS, PGI-Insomnia, EQ-5D-3L, and eC-SSR were completed.
Month 3 Assessment: All assessments conducted at the Month 1 Assessment were repeated.
Month 6 Assessment: All assessments conducted at the Month 1 Assessment were repeated, and subjects completed the WPAI-GH.

[2] = tested on: Subjects Having Insomnia Disorder; assay: Example 1: Quality of Sleep rating (scale 1 to 9); details: for Quality of Sleep score, Mean (SD): Baseline; for Quality of Sleep score, Treatment difference (vs placebo): change from baseline at Month 6
Description: (§1) In some embodiments, sleep diaries were used to assess sleep parameters reported by subjects (i.e., subjective assessments) including subjective sleep onset latency (sSOL), subjective sleep efficiency (sSE), subjective WASO (sWASO), and subjective total sleep time (sTST). Subjects were instructed to complete the Sleep Diary developed based on the consensus Sleep Diary as described in Carney et al., “The consensus sleep diary: standardizing prospective sleep self-monitoring,” Sleep 2012; 35(2):287-302. In some embodiments, the Sleep Diary was used to assess the subject's global perception of quality of sleep on the previous night with the following question: “How would you rate the quality of your sleep last night?” Subjects rated the quality of their sleep on a scale from 1 to 9, with 1 being extremely poor and 9 being extremely good. In some embodiments, the Sleep Diary was used to assess subjective ratings of morning sleepiness with the following question: “How alert/sleepy do you feel this morning?” Subjects rated their sleepiness/alertness level on a Likert scale from 1 to 9, with 1 being extremely sleepy and 9 being extremely alert.
Treatment period 1 began with the first dose of randomized study medication (placebo, 5 mg of lemborexant, or 10 mg of lemborexant). Subjects completed sleep diaries daily in the morning, within one hour of waketime. The subjects were assessed by a clinician one month, two months, three months, and six months after initiation of Treatment period 1.

[3] = tested on: Subjects Having Insomnia Disorder; assay: Example 1: subjective sleep onset latency (sSOL), Sleep Diary
Description: As used herein, the term “subjective sleep onset latency”, abbreviated as “sSOL”, means the estimated number of minutes from the time that the subject attempted to sleep until sleep onset. In some embodiments, sSOL is derived from data entered in a subject's Sleep Diary.
as §1
sSOL—subjective sleep onset latency: estimated minutes from the time that the subject attempted to sleep until sleep onset.
Subjects were randomized in a double-blind manner and received either placebo, 5 mg of lemborexant, or 10 mg of lemborexant (approximately 1:1:1 randomization). All subjects underwent routine safety monitoring through the study, including assessments of treatment-emergent adverse events, 12-lead electrocardiograms, vital signs, weight, and clinical hematology and blood chemistry labs. Suicidality was assessed using the eC-SSRS.
Treatment period 1 began with the first dose of randomized study medication (placebo, 5 mg of lemborexant, or 10 mg of lemborexant). Subjects completed sleep diaries daily in the morning, within one hour of waketime. The subjects were assessed by a clinician one month, two months, three months, and six months after initiation of Treatment period 1. The following assessments were conducted:
The primary endpoint was the mean change from study baseline in subjective sleep onset latency at month 6.

Cc1ncc(OC[C@@]2(c3cccc(F)c3)C[C@H]2C(=O)Nc2ccc(F)cn2)c(C)n1 [Lemborexant, (1R,2S)-2-(((2,4-dimethylpyrimidin-5-yl)oxy)methyl)-2-(3-fluorophenyl)-N-(5-fluoropyridin-2-yl)cyclopropanecarboxamide]
concentration at 1 month ([1]; 10 mg, lemborexant 10 mg dose, Month 1, read-out: Plasma concentration, Mean (SD)): 16.3 ng/mL | concentration at 1 month ([1]; 10 mg, lemborexant 10 mg dose, Month 1, read-out: Plasma concentration, Median): 15.1 ng/mL | concentration at 3 month ([1]; 10 mg, lemborexant 10 mg dose, Month 3, read-out: Plasma concentration, Mean (SD)): 15.6 ng/mL | concentration at 3 month ([1]; 10 mg, lemborexant 10 mg dose, Month 3, read-out: Plasma concentration, Median): 15.1 ng/mL | concentration at 6 month ([1]; 10 mg, lemborexant 10 mg dose, Month 6, read-out: Plasma concentration, Mean (SD)): 15.2 ng/mL | concentration at 6 month ([1]; 10 mg, lemborexant 10 mg dose, Month 6, read-out: Plasma concentration, Median): 14.5 ng/mL | concentration at 1 month ([1]; oral, 5 mg, lemborexant 5 mg dose, Month 1, read-out: Plasma concentration, Mean (SD)): 9 ng/mL | concentration at 1 month ([1]; oral, 5 mg, lemborexant 5 mg dose, Month 1, read-out: Plasma concentration, Median): 7.6 ng/mL | concentration at 3 month ([1]; oral, 5 mg, lemborexant 5 mg dose, Month 3, read-out: Plasma concentration, Mean (SD)): 8.4 ng/mL | concentration at 3 month ([1]; oral, 5 mg, lemborexant 5 mg dose, Month 3, read-out: Plasma concentration, Median): 7.7 ng/mL | concentration at 6 month ([1]; oral, 5 mg, lemborexant 5 mg dose, Month 6, read-out: Plasma concentration, Mean (SD)): 7.9 ng/mL | concentration at 6 month ([1]; oral, 5 mg, lemborexant 5 mg dose, Month 6, read-out: Plasma concentration, Median): 6.9 ng/mL | Plasma concentration BLQ (<0.0500 ng/mL) ([1]; lemborexant 5 mg dose, Month 1): 31 (10.5) n (%) | Plasma concentration BLQ (<0.0500 ng/mL) ([1]; lemborexant 5 mg dose, Month 3): 34 (12.6) n (%) | Plasma concentration BLQ (<0.0500 ng/mL) ([1]; lemborexant 5 mg dose, Month 6): 45 (18.2) n (%) | Plasma concentration BLQ (<0.0500 ng/mL) ([1]; lemborexant 10 mg dose, Month 1): 21 (7.4) n (%) | Plasma concentration BLQ (<0.0500 ng/mL) ([1]; lemborexant 10 mg dose, Month 3): 29 (11.2) n (%) | Plasma concentration BLQ (<0.0500 ng/mL) ([1]; lemborexant 10 mg dose, Month 6): 33 (14.6) n (%) | Quality of Sleep score, Mean (SD) ([2]; 5 mg): 4.0 (1.3) | Quality of Sleep score, Treatment difference (vs placebo) ([2]; 5 mg): 0.28 | Quality of Sleep score, Mean (SD) ([2]; 10 mg): 4.0 (1.4) | Quality of Sleep score, Treatment difference (vs placebo) ([2]; 10 mg): 0.32 | quality of sleep compared with placebo ([2]; at 6 months (Table 8)): significantly improved | subjective sleep onset latency compared with placebo ([3]; 5 mg and 10 mg, at the equivalent timepoint (Table 2)): shorter subjective sleep onset latency than subjects treated with placebo | sSOL, Geometric Mean ([3]; 5 mg, First 7 Nights): 30.99 min | sSOL, Mean ([3]; 5 mg, First 7 Nights): 45.69 min | sSOL, Median ([3]; 5 mg, First 7 Nights): 36.58 min | sSOL, Geometric Mean ([3]; 5 mg, Month 1): 26.98 min | sSOL, Mean ([3]; 5 mg, Month 1): 41.89 min | sSOL, Median ([3]; 5 mg, Month 1): 32.50 min | sSOL, Geometric Mean ([3]; 5 mg, Month 3): 21.72 min | sSOL, Mean ([3]; 5 mg, Month 3): 34.31 min | sSOL, Median ([3]; 5 mg, Month 3): 24.79 min | sSOL, Geometric Mean ([3]; 5 mg, Month 6): 18.62 min | sSOL, Mean ([3]; 5 mg, Month 6): 29.49 min | sSOL, Median ([3]; 5 mg, Month 6): 22.29 min | sSOL, Geometric Mean ([3]; 5 mg, Study Baseline): 42.97 min | sSOL, Mean ([3]; 5 mg, Study Baseline): 62.19 min | sSOL, Median ([3]; 5 mg, Study Baseline): 53.57 min | sSOL Change from Study Baseline, Mean ([3]; 5 mg, after 1 Month): -19.41 min | sSOL Change from Study Baseline, Median ([3]; 5 mg, after 1 Month): -13.71 min | sSOL Change from Study Baseline, Mean ([3]; 5 mg, after 3 Months): -25.08 min | sSOL Change from Study Baseline, Median ([3]; 5 mg, after 3 Months): -20.71 min | sSOL Change from Study Baseline, Mean ([3]; 5 mg, after 6 Months): -29.39 min | sSOL Change from Study Baseline, Median ([3]; 5 mg, after 6 Months): -21.81 min | sSOL Change from Study Baseline, Mean ([3]; 5 mg, after 7 Nights): -16.86 min | sSOL Change from Study Baseline, Median ([3]; 5 mg, after 7 Nights): -11.00 min | sSOL, Geometric Mean ([3]; 10 mg, First 7 Nights): 30.77 min | sSOL, Mean ([3]; 10 mg, First 7 Nights): 45.94 min | sSOL, Median ([3]; 10 mg, First 7 Nights): 35.71 min | sSOL, Geometric Mean ([3]; 10 mg, Month 1): 27.14 min | sSOL, Mean ([3]; 10 mg, Month 1): 41.93 min | sSOL, Median ([3]; 10 mg, Month 1): 31.79 min | sSOL, Geometric Mean ([3]; 10 mg, Month 3): 22.71 min | sSOL, Mean ([3]; 10 mg, Month 3): 36.13 min | sSOL, Median ([3]; 10 mg, Month 3): 26.42 min | sSOL, Geometric Mean ([3]; 10 mg, Month 6): 19.35 min | sSOL, Mean ([3]; 10 mg, Month 6): 33.09 min | sSOL, Median ([3]; 10 mg, Month 6): 23.57 min | sSOL, Geometric Mean ([3]; 10 mg, Study Baseline): 45.05 min | sSOL, Mean ([3]; 10 mg, Study Baseline): 64.97 min | sSOL, Median ([3]; 10 mg, Study Baseline): 55.71 min | sSOL Change from Study Baseline, Mean ([3]; 10 mg, after 1 Month): -24.06 min | sSOL Change from Study Baseline, Median ([3]; 10 mg, after 1 Month): -19.86 min | sSOL Change from Study Baseline, Mean ([3]; 10 mg, after 3 Months): -27.94 min | sSOL Change from Study Baseline, Median ([3]; 10 mg, after 3 Months): -25.71 min | sSOL Change from Study Baseline, Mean ([3]; 10 mg, after 6 Months): -32.49 min | sSOL Change from Study Baseline, Median ([3]; 10 mg, after 6 Months): -28.21 min | sSOL Change from Study Baseline, Mean ([3]; 10 mg, after 7 Nights): -18.89 min | sSOL Change from Study Baseline, Median ([3]; 10 mg, after 7 Nights): -12.21 min
